Active and inactive are the calls of the source. No cut-off for these calls is given here.
How the values were obtained:
[1] = target: T1, 3',5'-cyclic-AMP phosphodiesterase 4D (Homo sapiens, UniProt Q08499); assay: Inhibition of PDE4D7 (unknown origin) using FAM-cyclic-3'5'-AMP as substrate at 10 nM incubated for 1 hrs by fluorescence polarization assay relative to control
[2] = target: T1, 3',5'-cyclic-AMP phosphodiesterase 4D; assay: Inhibition of PDE4D7 (unknown origin) using FAM-cyclic-3'5'-AMP as substrate at 100 nM incubated for 1 hrs by fluorescence polarization assay relative to control
[3] = target: High affinity 3',5'-cyclic-AMP phosphodiesterase 7A (Homo sapiens) (UniProt Q13946); assay: Inhibition of PDE7A (unknown origin) using FAM-cyclic-3'5'-AMP as substrate at 10 uM incubated for 1 hrs by fluorescence polarization assay relative to control
Chain of High affinity 3',5'-cyclic-AMP phosphodiesterase 7A (Homo sapiens) (Q13946 whole entry): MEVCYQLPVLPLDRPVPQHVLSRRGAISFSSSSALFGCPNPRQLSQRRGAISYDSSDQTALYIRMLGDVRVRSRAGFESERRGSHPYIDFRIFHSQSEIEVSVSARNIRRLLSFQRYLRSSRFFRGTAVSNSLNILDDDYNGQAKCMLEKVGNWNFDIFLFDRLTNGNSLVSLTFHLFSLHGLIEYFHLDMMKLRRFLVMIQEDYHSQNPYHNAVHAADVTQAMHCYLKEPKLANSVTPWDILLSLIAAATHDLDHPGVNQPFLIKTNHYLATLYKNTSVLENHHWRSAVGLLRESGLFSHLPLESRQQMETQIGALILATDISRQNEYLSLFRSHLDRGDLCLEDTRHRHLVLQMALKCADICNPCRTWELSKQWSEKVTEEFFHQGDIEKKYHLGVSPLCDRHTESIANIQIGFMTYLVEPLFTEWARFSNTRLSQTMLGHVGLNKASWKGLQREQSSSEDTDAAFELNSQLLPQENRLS

[4] = target: High affinity cGMP-specific 3',5'-cyclic phosphodiesterase 9A (Homo sapiens) (UniProt O76083); assay: Inhibition of PDE9A (unknown origin) using FAM-cyclic-3'5'-AMP as substrate at 10 uM incubated for 1 hrs by fluorescence polarization assay relative to control
Chain of High affinity cGMP-specific 3',5'-cyclic phosphodiesterase 9A (Homo sapiens) (O76083 whole entry): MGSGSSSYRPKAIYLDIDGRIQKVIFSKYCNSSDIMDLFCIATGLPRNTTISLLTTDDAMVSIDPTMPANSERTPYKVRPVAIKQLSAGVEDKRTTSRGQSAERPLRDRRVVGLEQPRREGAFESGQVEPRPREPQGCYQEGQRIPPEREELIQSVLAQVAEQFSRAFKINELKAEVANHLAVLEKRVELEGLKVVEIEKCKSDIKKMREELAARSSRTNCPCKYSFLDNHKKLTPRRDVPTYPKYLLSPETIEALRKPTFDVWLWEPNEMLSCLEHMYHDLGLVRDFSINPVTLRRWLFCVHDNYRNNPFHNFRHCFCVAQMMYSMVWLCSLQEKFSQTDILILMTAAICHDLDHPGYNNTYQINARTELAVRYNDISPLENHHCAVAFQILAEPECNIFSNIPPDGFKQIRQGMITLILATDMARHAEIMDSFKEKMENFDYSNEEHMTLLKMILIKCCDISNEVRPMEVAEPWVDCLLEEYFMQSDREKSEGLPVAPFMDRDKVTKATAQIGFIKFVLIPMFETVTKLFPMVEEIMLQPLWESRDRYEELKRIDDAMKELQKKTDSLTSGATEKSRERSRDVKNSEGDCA

[5] = Toxicity in ketamine/xylazine-induced anesthetic male C57BL/6J mouse model assessed as emetogenic potential by measuring reduction in anesthesia duration at 5 to 10 mg/kg, po preadministered with compound for 15 mins followed by ketamine/xylazine administration; format: organism-based; conditions: in vivo, 0.25 h, dose 5-10 mg/kg
HT-22 = assay: Cytotoxicity against mouse HT-22 cells at 10 to 30 uM; format: toxicity, cell-based; conditions: ht-22, 30 µM, dose 10-30 µM
[6] = Selectivity ratio of IC50 for PDE3B (unknown origin) to IC50 for PDE4D7 (unknown origin)
[7] = target: High affinity cAMP-specific and IBMX-insensitive 3',5'-cyclic phosphodiesterase 8A (Homo sapiens) (UniProt O60658); assay: Inhibition of PDE8A (unknown origin) using FAM-cyclic-3'5'-AMP as substrate at 10 uM incubated for 1 hrs by fluorescence polarization assay relative to control
Chain of High affinity cAMP-specific and IBMX-insensitive 3',5'-cyclic phosphodiesterase 8A (Homo sapiens) (O60658 whole entry): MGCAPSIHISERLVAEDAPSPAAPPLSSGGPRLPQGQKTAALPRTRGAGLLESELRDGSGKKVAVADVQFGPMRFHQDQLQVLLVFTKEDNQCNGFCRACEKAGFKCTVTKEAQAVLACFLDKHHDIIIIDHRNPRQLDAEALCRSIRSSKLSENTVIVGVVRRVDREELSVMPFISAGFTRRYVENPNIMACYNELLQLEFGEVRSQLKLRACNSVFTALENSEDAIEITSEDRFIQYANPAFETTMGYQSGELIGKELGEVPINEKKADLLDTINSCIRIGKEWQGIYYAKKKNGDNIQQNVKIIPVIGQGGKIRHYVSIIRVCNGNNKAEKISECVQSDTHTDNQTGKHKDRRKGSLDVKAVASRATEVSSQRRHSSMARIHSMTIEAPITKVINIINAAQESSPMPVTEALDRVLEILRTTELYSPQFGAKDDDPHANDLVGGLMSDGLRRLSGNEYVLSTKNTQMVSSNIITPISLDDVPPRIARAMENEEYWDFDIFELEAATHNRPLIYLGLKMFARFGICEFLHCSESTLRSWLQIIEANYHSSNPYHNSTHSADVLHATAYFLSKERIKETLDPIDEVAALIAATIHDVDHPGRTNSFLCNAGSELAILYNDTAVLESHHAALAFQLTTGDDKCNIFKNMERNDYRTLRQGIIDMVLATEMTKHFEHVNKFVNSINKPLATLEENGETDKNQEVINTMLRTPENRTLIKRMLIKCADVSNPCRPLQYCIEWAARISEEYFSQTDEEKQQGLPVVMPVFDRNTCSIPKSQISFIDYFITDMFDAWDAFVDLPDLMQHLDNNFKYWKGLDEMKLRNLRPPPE

[8] = Acute toxicity in po dosed male C57BL/6J mouse assessed as lethal dose measured after 14 days; format: organism-based; conditions: in vivo, time 14 day
[9] = Selectivity ratio of IC50 for PDE7A (unknown origin) to IC50 for PDE4D7 (unknown origin)
[10] = target: cGMP-inhibited 3',5'-cyclic phosphodiesterase 3B (Homo sapiens) (UniProt Q13370); assay: Inhibition of PDE3B (unknown origin) using FAM-cyclic-3'5'-AMP as substrate at 10 uM incubated for 1 hrs by fluorescence polarization assay relative to control
Chain of cGMP-inhibited 3',5'-cyclic phosphodiesterase 3B (Homo sapiens) (Q13370 whole entry, looked up): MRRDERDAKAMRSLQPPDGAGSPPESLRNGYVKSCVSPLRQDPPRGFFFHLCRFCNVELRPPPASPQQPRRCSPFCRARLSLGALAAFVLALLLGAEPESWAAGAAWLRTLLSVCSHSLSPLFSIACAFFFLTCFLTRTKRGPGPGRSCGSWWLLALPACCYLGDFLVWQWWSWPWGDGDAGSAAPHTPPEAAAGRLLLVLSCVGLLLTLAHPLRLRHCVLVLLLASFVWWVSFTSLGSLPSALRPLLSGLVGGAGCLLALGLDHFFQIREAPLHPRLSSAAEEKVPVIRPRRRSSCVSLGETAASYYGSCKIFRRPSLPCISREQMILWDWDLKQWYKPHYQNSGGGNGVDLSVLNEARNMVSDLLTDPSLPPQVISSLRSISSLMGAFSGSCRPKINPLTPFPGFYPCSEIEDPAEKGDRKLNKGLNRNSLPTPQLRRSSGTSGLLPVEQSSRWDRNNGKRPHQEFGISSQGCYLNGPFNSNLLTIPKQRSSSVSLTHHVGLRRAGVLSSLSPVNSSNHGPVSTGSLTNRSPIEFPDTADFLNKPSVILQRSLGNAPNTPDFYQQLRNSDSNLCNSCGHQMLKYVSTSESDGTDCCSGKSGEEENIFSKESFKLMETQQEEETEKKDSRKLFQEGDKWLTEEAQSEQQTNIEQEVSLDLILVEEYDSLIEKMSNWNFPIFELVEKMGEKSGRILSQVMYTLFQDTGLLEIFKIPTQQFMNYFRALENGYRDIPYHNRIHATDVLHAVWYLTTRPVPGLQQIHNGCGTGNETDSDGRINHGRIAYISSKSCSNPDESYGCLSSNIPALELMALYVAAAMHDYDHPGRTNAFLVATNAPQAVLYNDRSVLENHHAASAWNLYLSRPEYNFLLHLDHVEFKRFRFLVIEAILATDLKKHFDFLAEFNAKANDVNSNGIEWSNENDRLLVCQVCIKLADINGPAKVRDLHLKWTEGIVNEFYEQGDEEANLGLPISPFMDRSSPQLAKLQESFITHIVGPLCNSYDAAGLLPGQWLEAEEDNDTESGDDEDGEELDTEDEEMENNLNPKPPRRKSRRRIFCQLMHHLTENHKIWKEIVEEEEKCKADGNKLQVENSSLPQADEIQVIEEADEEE

[11] = target: T1, 3',5'-cyclic-AMP phosphodiesterase 4D; assay: Inhibition of PDE4D7 (unknown origin) using FAM-cyclic-3'5'-AMP as substrate incubated for 1 hrs by fluorescence polarization assay
[12] = Selectivity ratio of IC50 for PDE8A (unknown origin) to IC50 for PDE4D7 (unknown origin)
[13] = Selectivity ratio of IC50 for PDE9A (unknown origin) to IC50 for PDE4D7 (unknown origin)
[14] = Oral bioavailability in male C57BL/6J mouse; format: ADME, organism-based; conditions: in vivo
[15] = target: T1, 3',5'-cyclic-AMP phosphodiesterase 4D; assay: Inhibition of PDE4D7 (unknown origin) using FAM-cyclic-3'5'-AMP as substrate at 1 uM incubated for 1 hrs by fluorescence polarization assay relative to control
[16] = Toxicity in ketamine/xylazine-induced anesthetic male C57BL/6J mouse model assessed as emetogenic potential by measuring reduction in anesthesia duration at 0.5 mg/kg, po preadministered with compound for 15 mins followed by ketamine/xylazine administration; format: organism-based; conditions: in vivo, 0.25 h
RAW264.7 [17] = assay: Antiinflammatory activity against mouse RAW264.7 cells assessed as inhibition of LPS-induced iNOS mRNA production at 10 uM incubated for 24 hrs by SYBR green quantitative PCR analysis; format: functional, cell-based
Mus musculus [18] = assay: Antiinflammatory activity against DSS-induced colitis C57BL/6J mouse model assessed as decrease in disease activity index at 3 mg/kg, po pretreated with DSS for 10 days followed by twice daily compound administration for 8 days starting from day 3 to day 10 relative to control; format: functional, organism-based; conditions: time 8.0 day
Mus musculus [19] = assay: Antiinflammatory activity against DSS-induced colitis C57BL/6J mouse model assessed as increase in colon length at 3 mg/kg, po pretreated with DSS for 10 days followed by twice daily compound administration for 8 days starting from day 3 to day 10; format: functional, organism-based; conditions: time 8.0 day
Mus musculus [20] = assay: Antiinflammatory activity against DSS-induced colitis C57BL/6J mouse model assessed as decrease in body weight loss at 3 mg/kg, po pretreated with DSS for 10 days followed by twice daily compound administration for 8 days starting from day 3 to day 10 relative to control; format: functional; parameters: scale not given: the % may be the effect or the level left; conditions: time 8 day
Mus musculus [21] = assay: Antiinflammatory activity against DSS-induced colitis C57BL/6J mouse model assessed as decrease in body weight loss at 3 mg/kg, po pretreated with DSS for 10 days followed by twice daily compound administration for 8 days starting from day 3 to day 10 and measured on day 6; format: functional, organism-based; conditions: time 4.0 day
RAW264.7 [22] = assay: Antiinflammatory activity against mouse RAW264.7 cells assessed as inhibition of LPS-induced IL-6 mRNA production at 10 uM incubated for 24 hrs by SYBR green quantitative PCR analysis; format: functional, cell-based
RAW264.7 [23] = assay: Antiinflammatory activity against mouse RAW264.7 cells assessed as inhibition of LPS-induced TNF-alpha mRNA production at 10 uM incubated for 24 hrs by SYBR green quantitative PCR analysis; format: functional, cell-based
Phosphodiesterase 7 = Phosphodiesterase 7 (Homo sapiens, UniProt Q13946+Q9NP56); assay: Inhibition of PDE7 (unknown origin); format: protein assay
Phosphodiesterase 4 = Phosphodiesterase 4 (Homo sapiens, UniProt P27815+Q08499+Q07343+Q08493); assay: Inhibition of PDE4 (unknown origin); format: protein assay
[24] = target: T1, 3',5'-cyclic-AMP phosphodiesterase 4D; assay: Potency index, ratio of TPA16 IC50 to test compound IC50 for inhibition of PDE4D7 (unknown origin) using FAM-cyclic-3'5'-AMP as substrate incubated for 1 hrs by fluorescence polarization assay
[25] = target: T1, 3',5'-cyclic-AMP phosphodiesterase 4D; assay: Inhibition of human recombinant PDE4D using radioactively labelled cAMP and cAMP as substrate incubated for 1 hrs by luminescence based analysis
[26] = target: 3',5'-cyclic-AMP phosphodiesterase 4B (Homo sapiens, UniProt Q07343); assay: Inhibition of recombinant human PDE4B catalytic domain extracted from baculovirus infected Sf9 cells using […] preincubated for 20 mins followed by 2 mins incubation at 65 degreeC and measured 10 mins after substrate addition by scintillation counter
Chain of 3',5'-cyclic-AMP phosphodiesterase 4B (Q07343 whole entry, the tested form may be a part): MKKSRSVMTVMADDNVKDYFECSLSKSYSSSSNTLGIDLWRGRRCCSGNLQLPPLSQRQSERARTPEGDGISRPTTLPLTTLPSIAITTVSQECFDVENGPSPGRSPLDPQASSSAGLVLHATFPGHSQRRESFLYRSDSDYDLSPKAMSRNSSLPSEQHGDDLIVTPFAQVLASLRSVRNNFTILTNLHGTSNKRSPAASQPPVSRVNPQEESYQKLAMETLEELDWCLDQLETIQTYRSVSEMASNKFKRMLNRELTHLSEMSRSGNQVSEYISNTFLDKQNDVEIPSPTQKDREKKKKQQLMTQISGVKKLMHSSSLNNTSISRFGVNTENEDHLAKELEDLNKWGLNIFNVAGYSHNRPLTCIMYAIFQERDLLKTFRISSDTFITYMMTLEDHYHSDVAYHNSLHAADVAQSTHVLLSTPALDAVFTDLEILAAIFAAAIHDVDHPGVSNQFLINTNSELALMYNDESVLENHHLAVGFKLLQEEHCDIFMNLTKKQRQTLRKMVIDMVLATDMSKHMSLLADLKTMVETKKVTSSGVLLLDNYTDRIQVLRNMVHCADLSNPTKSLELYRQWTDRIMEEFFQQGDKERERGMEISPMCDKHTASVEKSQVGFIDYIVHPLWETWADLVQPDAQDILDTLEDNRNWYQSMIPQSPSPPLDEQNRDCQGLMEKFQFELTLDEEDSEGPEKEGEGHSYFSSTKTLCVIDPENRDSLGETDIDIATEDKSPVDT

[27] = Acute toxicity in male C57BL/6J mouse assessed as animal death at 0.1 g/Kg, po measured within 10 to 24 hrs; format: organism-based; conditions: in vivo, 100 mg/kg, time 10-24 hrs

T1 sequence (Q08499 whole entry): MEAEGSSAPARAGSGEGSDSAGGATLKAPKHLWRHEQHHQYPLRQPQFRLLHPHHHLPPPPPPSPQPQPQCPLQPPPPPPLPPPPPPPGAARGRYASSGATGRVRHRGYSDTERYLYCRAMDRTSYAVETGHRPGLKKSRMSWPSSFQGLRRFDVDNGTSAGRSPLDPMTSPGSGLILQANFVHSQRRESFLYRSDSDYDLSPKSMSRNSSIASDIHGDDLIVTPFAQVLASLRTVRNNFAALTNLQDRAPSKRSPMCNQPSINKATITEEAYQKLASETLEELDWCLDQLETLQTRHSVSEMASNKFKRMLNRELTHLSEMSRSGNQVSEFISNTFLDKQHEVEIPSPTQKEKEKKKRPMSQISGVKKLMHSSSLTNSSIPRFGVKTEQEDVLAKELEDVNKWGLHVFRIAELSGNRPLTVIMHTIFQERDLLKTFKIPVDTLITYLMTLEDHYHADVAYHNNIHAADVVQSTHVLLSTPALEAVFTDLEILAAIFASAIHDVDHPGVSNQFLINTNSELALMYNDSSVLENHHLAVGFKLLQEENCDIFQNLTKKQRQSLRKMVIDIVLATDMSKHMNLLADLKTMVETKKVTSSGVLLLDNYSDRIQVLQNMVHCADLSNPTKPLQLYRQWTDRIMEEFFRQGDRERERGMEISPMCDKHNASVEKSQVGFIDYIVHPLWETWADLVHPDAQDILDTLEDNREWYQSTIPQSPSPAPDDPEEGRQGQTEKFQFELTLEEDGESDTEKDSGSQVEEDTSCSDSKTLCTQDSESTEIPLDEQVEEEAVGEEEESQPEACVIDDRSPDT

Row | Structure (SMILES) | inhibition [1] | inhibition [2] | IC50 [11] | other results
1 | CC(C)CNC(=O)c1cc(-c2ccc(OC(F)F)c3nn(C4CC4)cc23)ccn1 | 5% | 14% |  | 
2 | NC(=O)c1cccnc1Oc1cc(-c2ccc(OC(F)F)c3nn(C4CC4)cc23)cc2c1OCO2 |  | 22% |  | 
3 | COc1ccc(-c2ccncc2)c2cn(C3CC3)nc12 | 46% | 89% | 10.1 nM | inhibition [3]: 13%; inhibition [4]: 7%; Activity [5]: Non-Toxic; Activity (HT-22): Non-Toxic; Ratio IC50 [6]: > 990; inhibition [7]: 10%; LD50 at 336 h [8]: 400 mg/kg; Ratio IC50 [9]: > 990; inhibition [10]: 11%; Ratio IC50 [12]: > 990; Ratio IC50 [13]: > 990; bioavailability [14]: 3.4%
4 | Fc1cc(-c2ccc(OC(F)F)c3nn(C4CC4)cc23)ccn1 | 12% | 38% |  | 
5 | COc1ccc(-c2cccc(C(C)=O)c2)c2cn(C3(C(=O)NCC(C)C)CC3)nc12 |  | 4% | > 1000 nM | inhibition [15]: 7%
6 | N#Cc1cccnc1Oc1cc(-c2ccc(OC(F)F)c3nn(C4CC4)cc23)cc2c1OCO2 |  | 2% |  | 
7 | Fc1cnccc1-c1ccc(OC(F)F)c2nn(C3CC3)cc12 | 3% | 15% |  | 
8 | O=C(Nc1c(Cl)cncc1Cl)c1ccc(OC(F)F)c(OCC2CC2)c1 [ROFLUMILAST] |  |  |  | Activity [16]: Toxic; Activity (RAW264.7 [17]): Active; Activity (Mus musculus [18]): Active; Activity (Mus musculus [19]): Active; Activity (Mus musculus [20]): 7.3%; Activity (Mus musculus [21]): Active; Activity (RAW264.7 [22]): Active; Activity (RAW264.7 [23]): Active
9 | COc1ccc(N2CC(Oc3ccccc3)C2)c2cn(C3CC3)nc12 | 7% | 9% |  | 
10 | COc1ccc(C2CNC(=O)C2)cc1OC1CCCC1 (stereo unspecified) [ROLIPRAM] |  |  |  | Activity [16]: Toxic
11 | CC(=O)c1cccc(-c2ccc(OC(F)F)c3nn(C4CC4)cc23)c1 | 38% | 88% | 13.4 nM | Activity (HT-22): Toxic
12 | COc1cc(-c2ccc(OC(F)F)c3nn(C4CC4)cc23)ccn1 | 7% | 21% |  | 
13 | COc1cc(OC)cc(-c2ccc(OC(F)F)c3nn(C4CC4)cc23)c1 |  | 4% |  | 
14 | COc1ccc(-c2cc(C#N)cc(Cc3ccccc3)c2)c2cn(C3CC3)nc12 | 3% | 3% |  | 
15 | OCCN(CCO)c1nc(N2CCCCC2)c2nc(N(CCO)CCO)nc(N3CCCCC3)c2n1 [DIPYRIDAMOLE] |  |  |  | IC50 (Phosphodiesterase 7): 600 nM; IC50 (Phosphodiesterase 4): 2800 nM
16 | COc1cc(-c2ccc(OC(F)F)c3nn(C4CC4)cc23)cc2c1OCO2 |  | 24% |  | 
17 | COc1cc(-c2ccc(OC)c3nn(C4CC4)cc23)cc(OC)c1OC | 34% | 73% | 27.6 nM | Ratio IC50 [24]: > 20
18 | FC(F)Oc1ccc(N2CCOCC2)c2cn(C3CC3)nc12 | 4% | 12% |  | 

Row | Structure (SMILES) | inhibition [1] | inhibition [2] | IC50 [11] | other results
19 | FC(F)Oc1ccc(-c2ccnc(Cl)c2)c2cn(C3CC3)nc12 | 28% | 79% | 22.5 nM | 
20 | O=C(NCc1ccccc1)c1cc(-c2ccc(OC(F)F)c3nn(C4CC4)cc23)ccn1 | 8% | 16% |  | 
21 | COc1ccc(-c2cccc(CN)c2)c2cn(C3CC3)nc12 | 32% | 71% | 33.1 nM | 
22 | COc1ccc(-c2cccc(C(C)=O)c2)c2cn(C3CC3)nc12 | 37% | 68% | 22.9 nM | 
23 | CC(C)(O)C1CN(c2ccc(OC(F)F)c3nn(C4CC4)cc23)C1 | 4% | 4% |  | 
24 | COc1ccc(-c2ccc(OC)c3nn(C4CC4)cc23)cc1OC | 3% | 4% |  | inhibition [11]: inactive
25 | COc1ccc(-c2cccc(C(C)=O)c2)n2nc(C3(C(=O)NC4CCCC4)CC3)nc12 |  |  |  | IC50 [25]: < 500 nM
26 | COc1ccc(-n2ccc3cc(C#N)ccc32)c2cn(C3CC3)nc12 | 18% | 16% |  | 
27 | CCOc1cc([C@@H](CS(C)(=O)=O)N2C(=O)c3cccc(NC(C)=O)c3C2=O)ccc1OC |  |  |  | Activity [16]: Toxic
28 | COc1ccc(-c2cccc(C#N)c2)c2cn(C3CC3)nc12 | 5% | 6% |  | 
29 | COc1ccc(-c2cccc(C(C)=O)c2)c2cn(C3(C(=O)NC4CCCC4)CC3)nc12 |  | 8% | > 1000 nM | inhibition [15]: 4%
30 | COc1ccc(-c2ccc3[nH]c(=O)ccc3c2)n2cc(C(F)(F)F)nc12 |  |  |  | IC50 [26]: < 100 nM
31 | COc1ccc(-c2cccc(C(N)=O)c2)c2cn(C3CC3)nc12 | 26% | 68% | 38.2 nM | 
32 | FC(F)Oc1ccc(-c2ccncc2Cl)c2cn(C3CC3)nc12 | 6% | 14% |  | 
33 | FC(F)Oc1ccc(-c2ccnc(N3CCOCC3)c2)c2cn(C3CC3)nc12 | 3% | 11% |  | 
34 | CNc1cc(-c2ccc(OC(F)F)c3nn(C4CC4)cc23)ccn1 | 4% | 18% |  | 
35 | FC(F)Oc1ccc(-c2ccncc2)c2cn(C3CC3)nc12 | 34% | 77% | 19.9 nM | inhibition [3]: 13%; inhibition [4]: 4%; Activity (HT-22): Non-Toxic; Activity [27]: Toxic; Ratio IC50 [6]: > 502; inhibition [7]: 5%; Ratio IC50 [9]: > 502; inhibition [10]: 8%; Ratio IC50 [12]: > 502; Ratio IC50 [13]: > 502
36 | COc1ccc(-c2cccc(C#N)c2)c2cn(C3(C(=O)NCC(C)C)CC3)nc12 |  | 18% | 380 nM | inhibition [15]: 81%
